According to patent US9149530B2, “Compositions and methods for enhancing active agent absorption” (Nexus Pharma, Inc., priority 2006, dated 2015):

Tested on: Sprague-Dawley rats
Test: Blood glucose depression after intracolonic bovine pancreatic insulin given with absorption enhancer
Format: in vivo
Details: enhancer 0 mg/kg (insulin alone), rats n=3
Protocol: It is neutralized by 1 equivalent of sodium hydroxide. The pH is adjusted to 7-8 by 1N HCl and saturated sodium bicarbonate. Bovine pancreatic insulin (1.75 mL; Sigma, 10 mg/mL; in pH 8.2 HEPES buffer) is added and mixed by gentle swirling. The solution density is determined so that the required dose may be calculated.
The solution is then given to Sprague-Dawley rats (2-day fasting, female, 250-300 g, n=3), intracolonically. Blood samples are taken from the tail vein and glucose levels measured using an OneTouch® UltraSmart® blood glucose meter.

Substance: bovine pancreatic insulin: Bovine pancreatic insulin (Sigma, 10 mg/mL; in pH 8.2 HEPES buffer), the active agent co-administered
- Blood glucose, % of basal level (0 min): 100 % of basal level
- Blood glucose, % of basal level (30 min): 94 ± 4 % of basal level
- Blood glucose, % of basal level (60 min): 102 ± 7 % of basal level
- Blood glucose, % of basal level (90 min): 105 ± 3 % of basal level
- Blood glucose, % of basal level (120 min): 107 ± 7 % of basal level
- Blood glucose, % of basal level (150 min): 94 ± 7 % of basal level
- Blood glucose, % of basal level (180 min): 111 ± 7 % of basal level
- Blood glucose, % of basal level (210 min): 113 ± 4 % of basal level
- Blood glucose, % of basal level (240 min): 100 ± 7 % of basal level
